As a reminder, the IC50 is the point on the concentration scale where inhibition reaches its midpoint. A high value points to a need for much substance.

Series [1] can be described thus: The compound was tested for free energy change at binding to DNA. The series is classed as ADME.
Another series has as its system HCT-116. Kind of series: Cytotoxicity against human colon cancer cells (HCT116). The series is classed as functional, cell-based.
Series [2] is described as follows: The compound was tested for Binding constant against DNA. The series is classed as ADME.
In another series the test system is MKN-45. As to the kind of experiment: Cytotoxicity against human gastric cancer cells (MKN-45). The series is classed as functional, cell-based. The settings on record: MKN-45, Stomach.
A further series has as its system DLD-1. Kind of series: Cytotoxicity against human colon cancer cells (DLD-1). The series is classed as functional, cell-based.
In the next series the test system is P388. Kind of series: Cytotoxicity against murine leukemia cell line (P388). The series is classed as functional, cell-based. The settings on record: Mus musculus.

In the case of `O=C1c2c(c3c4cccc(O)c4n(C4OC(CO)C(O)C(O)C4O)c3c3[nH]c4c(O)cccc4c23)C(=O)N1NC(CO)CO` (centres undefined), the “-Delta G obs” value in series [1] amounted to 6.56 kcal/mol. In the series with HCT-116, this compound yielded an IC50 of 32 nM. In series [2], this compound returned a K/10e4 of 8.19 M⁻¹.
With `O=CNN1C(=O)c2c(c3c4cccc(O)c4n(C4OC(CO)C(O)C(O)C4O)c3c3[nH]c4c(O)cccc4c23)C1=O` (centres undefined), the IC50 was 390 nM in the series on MKN-45, 2100 nM with DLD-1, 62 nM in the series on P388 and 120 nM with HCT-116. Moreover, the -Delta G obs in series [1] was found to be 5.91 kcal/mol. This compound returned a K/10e4 in series [2] of 2.64 M⁻¹.
